Here are results for 1 compound from article PMC12123601, “Light-Induced, Lysine-Targeting Irreversible Covalent Inhibition of the Human Oxygen Sensing Hydroxylase Factor Inhibiting HIF (FIH)” (Journal of the American Chemical Society, 2025).

Read-outs that look alike come from different tables or passages of the source.

This assay concerns the target T1, FIH^K106A (Homo sapiens, UniProt Q9NWT6, K106A).
T1 construct: encoding for full-length FIH with an N-terminal His6 tag or for FIH (K106A) with an N-terminal His6 tag; His6 (N); host or cells: Escherichia coli BL21
Nature of the assay: Affinity-based fluorescence polarization (FP) assay with the FIH K106A variant, without and with irradiation. To be noted: for Ki: read-out: Binding affinity to FIH^K106A: Ki. Format: binding. An excerpt: 4 (A) Light-induced click conjugation between NBA-ZG-2291 and FIH protein. (B) Light-induced binding affinity of NBA-ZG-2291 to FIH^ WT . (C) Light-induced binding affinity of NBA-ZG-2291 to FIH^ K106A . […] TEXT PRINTED IN THE PICTURE: (B) NBA-ZG-2291: Binding affinity to FIH^WT: Ki (nM): 414 ± 14 (Irradtion time (min): 0); Binding affinity to FIH^WT: Ki (nM): 74.1 ± 1.6 (Irradtion time (min): 15); Binding affinity to FIH^WT: Ki (nM): 46.7 ± 1.4 (Irradtion time (min): 30); Binding affinity to FIH^WT: Ki (nM): 33.2 ± 0.6 (Irradtion time (min): 60); Binding affinity to FIH^WT: Ki (nM): 30.2 ± 2.0 (Irradtion time (min): 90); Binding affinity to FIH^WT: Ki (nM): 32.1 ± 0.7 (Irradtion time (min): 120) | (B) Neg-1: Binding affinity to FIH^WT: Ki (nM): 423 ± 7 (Irradtion time (min): 0); Binding affinity to FIH^WT: Ki (nM): 408 ± 30 (Irradtion time (min): 15); Binding affinity to FIH^WT: Ki (nM): 459 ± 32 (Irradtion time (min): 30); Binding affinity to FIH^WT: Ki (nM): 427 ± 17 (Irradtion time (min): 60); Binding affinity to FIH^WT: Ki (nM): 396 ± 29 (Irradtion time (min): 90); Binding affinity to FIH^WT: Ki (nM): 428 ± 15 (Irradtion time (min): 120) | (B) Neg-2: Binding affinity to FIH^WT: Ki (nM): 742 ± 65 (Irradtion time (min): 0); Binding affinity to FIH^WT: Ki (nM): 799 ± 69 (Irradtion time (min): 15); Binding affinity to FIH^WT: Ki (nM): 758 ± 13 (Irradtion time (min): 30); Binding affinity to FIH^WT: Ki (nM): 744 ± 30 (Irradtion time (min): 60); Binding affinity to FIH^WT: Ki (nM): 788 ± 36 (Irradtion time (min): 90); Binding affinity to FIH^WT: Ki (nM): 786 ± 35 (Irradtion time (min): 120) | (C) NBA-ZG-2291: Binding affinity to FIH^K106A: Ki (nM): 442 ± 12 (Irradtion time (min): 0); Binding affinity to FIH^K106A: Ki (nM): 427 ± 22 (Irradtion time (min): 15); Binding affinity to FIH^K106A: Ki (nM): 426 ± 7 (Irradtion time (min): 30); Binding affinity to FIH^K106A: Ki (nM): 420 ± 11 (Irradtion time (min): 60); Binding affinity to FIH^K106A: Ki (nM): 418 ± 5 (Irradtion time (min): 90); Binding affinity to FIH^K106A: Ki (nM): 424 ± 12 (Irradtion time (min): 120) | (C) Neg-1: Binding affinity to FIH^K106A: Ki (nM): 271 ± 14 (Irradtion time (min): 0); Binding affinity to FIH^K106A: Ki (nM): 275 ± 15 (Irradtion time (min): 15); Binding affinity to FIH^K106A: Ki (nM): 268 ± 25 (Irradtion time (min): 30); Binding affinity to FIH^K106A: Ki (nM): 266 ± 22 (Irradtion time (min): 60); Binding affinity to FIH^K106A: Ki (nM): 264 ± 41 (Irradtion time (min): 90); Binding affinity to FIH^K106A: Ki (nM): 270 ± 3 (Irradtion time (min): 120) | (C) Neg-2: Binding affinity to FIH^K106A: Ki (nM): 567 ± 37 (Irradtion time (min): 0); Binding affinity to FIH^K106A: Ki (nM): 548 ± 61 (Irradtion time (min): 15); Binding affinity to FIH^K106A: Ki (nM): 521 ± 50 (Irradtion time (min): 30); Binding affinity to FIH^K106A: Ki (nM): 627 ± 17 (Irradtion time (min): 60); Binding affinity to FIH^K106A: Ki (nM): 565 ± 10 (Irradtion time (min): 90); Binding affinity to FIH^K106A: Ki (nM): 552 ± 38 (Irradtion time (min): 120) […]
To further verify the covalent binding between NBA-ZG-2291 and Lys106, the FIH^ K106A variant was produced and purified.
3. Experimental procedures
3.1 Fluorescence polarization (FP) assays1 with FIHWT and FIHK106A pET28a vectors encoding for full-length FIH with an N-terminal His6 tag or for FIH (K106A) with an N-terminal His6 tag were purchased from Nanjing Zoonbio Biotechnology. Both the FIHWT and FIHK106A protein were expressed from the respective plasmid in Escherichia coli BL21 at 20 °C for 16 h. E. coli cells were lysed and the lysate were clarified by centrifugation. His6-tagged FIHWT or FIHK106A was purified on a HisTrap affinity column (GE Healthcare) by elution with an imidazole gradient. The final purified proteins were stored in PBS buffer.
FP assays were carried out using 384 -well plates (#3575, Corning); the polarization signal was measured using a SPARK Multi-Mode Microplate Reader (Tecan). […]

T1 sequence (Q9NWT6 whole entry K106A): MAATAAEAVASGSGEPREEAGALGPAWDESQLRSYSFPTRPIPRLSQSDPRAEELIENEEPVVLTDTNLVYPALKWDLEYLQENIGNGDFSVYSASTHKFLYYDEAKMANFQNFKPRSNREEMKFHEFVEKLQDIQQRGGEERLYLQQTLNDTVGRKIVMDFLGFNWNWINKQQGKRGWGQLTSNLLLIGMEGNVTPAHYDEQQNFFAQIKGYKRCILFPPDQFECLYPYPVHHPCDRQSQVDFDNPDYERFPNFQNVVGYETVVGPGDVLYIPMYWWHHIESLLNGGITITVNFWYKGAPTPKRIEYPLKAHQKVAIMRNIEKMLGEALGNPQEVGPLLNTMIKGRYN

In the case of `O=C(O)CNC(=O)c1ncc(-c2cc(-c3ccc(CO)c([N+](=O)[O-])c3)no2)cc1O` [NBA-ZG-2291], the “Effect of irradiation time on binding affinity for the FIH^K106A variant” value (FP assay, varying irradiation times) is recorded as “remained unchanged”. Further, the Ki amounted to 442 ± 12 nM (irradiation time 0 min); 427 ± 22 nM (irradiation time 15 min); 426 ± 7 nM (irradiation time 30 min); 420 ± 11 nM (irradiation time 60 min); 418 ± 5 nM (irradiation time 90 min); 424 ± 12 nM (irradiation time 120 min).
